Laboratory results as given in article PMC10460844, “Real‐Time Monitoring of Multitarget Antimicrobial Mechanisms of Peptoids Using Label‐Free Imaging with Optical Diffraction Tomography” (Advanced Science, 2023).
In brackets after ≈: the same amount, converted by molar mass. Read-outs that look alike come from different tables or passages of the source.

What was measured:
rat erythrocytes = test: Hemolysis assay; assay type: cell-based; conditions: for H max (100 µM): percentage of hemolysis at the highest concentration tested (100 µM), rat erythrocytes
Summary of the method: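 Washed Sprague-Dawley rat erythrocytes (10% suspension in PBS pH 7.4) mixed with peptoids (0–100 µM), 60 min at 37 °C; supernatant A540 expressed as % of 1% Triton X-100 lysis. HC10/HC50 are concentrations giving 10%/50% hemolysis; Hmax is hemolysis at 100 µM.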

E. coli ATCC 25922 [1] = test: Thioflavin S fluorescence imaging of intracellular aggregation; assay type: cell-based; conditions: 29 and peptoid 1 at 4 × MIC, control peptides 2 × MIC
[2] = Analytical reversed-phase HPLC elution (hydrophobicity); assay type: physicochemical; conditions: analytical RP-HPLC, 1 mL/min, UV 220 nm; for HPLC elution (%ACN): Table 1, SunFire C18 […] 250 mm, water/ACN + 0.1% TFA, 5% B 2 min then linear to 100% B over 30 min, used as measure of hydrophobicity; for HPLC elution: Table S1, SunFire C18, water/ACN + 0.1% TFA, 5 to 100% B linear over 30 min, approximate comparison of hydrophobicity
Summary of the method: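 Retention time (tR) reflects hydrophobicity, with detection at 220 nm. Elution used a 5–100% acetonitrile linear gradient over 30 min after a 2 min hold at 5%, then 5 min at 100%, with both phases containing 0.1% TFA. Column was an analytical C18 (4.6 × 250 mm, 5 μm) run at 1 mL/min.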

E. coli ATCC 25922 [3] = assay type: cell-based; conditions: ODT, 30 min treatment; buforin-II 25 µM, melittin 25 µM, 29 4 × MIC
Description: Three‐dimensional (3D) optical diffraction tomography (ODT) and fluorescence images of live bacterial cells were obtained using an HT‐2H Mach−Zehnder interferometric microscope, combining both ODT and fluorescence imaging into a single unit (Tomocube, Daejon, South Korea). 3D Fluorescence imaging was carried out, using three light sources (385, 470, and 565 nm) via serial fluorescence image acquisition in multiple planes followed by 3D deconvolution. 3D correlative imaging, using a combination of ODT and fluorescence imaging was performed using commercial software (TomoStudioTM, Tomocube) as described previously^[ [23c] ^] Bacterial cells were grown overnight and diluted (≈10^7 CFU mL^−1) in cation‐adjusted MHB2 media. The cells were loaded onto 50 mm imaging dishes with a #1.5H glass coverslip bottom (TomoDish, Tomocube) that were precoated with 0.01% (w/v) poly‐L‐lysine (Sigma‐Aldrich) in water. After 30 min incubation at room temperature, the coverslips were washed twice with PBS (pH 7.4) to remove unattached cells, and the media was replaced with PBS for the duration of the imaging. To monitor the change in bacterial morphology, bacterial cells were treated with a peptoid (or with control AMPs) in PBS containing FM4‐64 (10 µg mL^−1) or propidium iodide (10 µg mL^−1). To analyze 3D refractive index (RI) tomograms, individual bacteria were captured using ODT equipped with a digital micromirror device (Tomocube). In more detail, the light scattered by the bacterial cells was collected by an objective lens (NA = 1.2, water dipping, UPLSAPO 60XW, Olympus) and recorded by a digital image sensor (CMOS camera, FL3‐U313Y3M‐C, FLIR Systems). Using a field retrieval algorithm, the amplitude and phase images were retrieved from the obtained multiple holograms, and then the 3D RI distribution was determined.
The analysis tool in the TomoStudio software (Tomocube) was used to measure specific values, including the refractive index (RI) and the cell volume of bacteria. These values were determined from RI increments (RII) of 0.190 fL pg^−1, which is known as a representative value and was assumed to be the same for most proteins.^[ [46] ^]

E. faecalis KCTC 3511 = assay type: cell-based; conditions: KCTC 3511
S. typhimurium SL 1344 = assay type: cell-based; conditions: SL 1344
E. coli ATCC 25922 [4] = assay type: cell-based, Escherichia coli; conditions: mean of triplicate
Summary of the method: (§1)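 MIC = lowest peptoid concentration with no turbidity on visual inspection. Bacteria (≈2–5 × 10^5 CFU mL^−1) were exposed in MHB2 with 0.02% BSA and 0.001% acetic acid to six two-fold serial dilutions, top concentration 25 µM; triplicates.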

K. pneumonia ESBL 61962 = assay type: cell-based
P. aeruginosa MDR-198 = assay type: cell-based
S. aureus MRSA C623 = assay type: cell-based
E. coli ATCC 25922 [5] = test: NPN uptake assay (outer membrane); assay type: cell-based; conditions: E. coli ATCC 25922, 5 mM HEPES pH 7.2, 10 µM NPN, fluorescence
Description: 14. In vitro biological assays […]
The ability of peptoids to increase the permeability of the outer membrane of Gram-negative bacteria was determined by measuring the incorporation of the NPN fluorescent dye into the outer membrane of E. coli ATCC 25922. Bacterial cells were suspended to a final concentration of OD600 = 0.05 in 5 mM HEPES buffer, pH 7.2, containing 5 mM KCN. Then […]
200 μL NPN dye was added to wells of a 96 well plate to produce a final concentration of 10 μM, and the background fluorescence was recorded (λex = 350 nm, λem = 420 nm). Aliquots of peptoids were added to the well, and fluorescence was recorded as a function of time until there was no further increase in fluorescence. Increases of the permeability of the outer membrane after the addition of peptoids was reflected by increased fluorescence values as a result of NPN incorporation into the membrane. […]

E. coli ESBL 63103 = assay type: cell-based
S. aureus ATCC 25923 = assay type: cell-based, Staphylococcus aureus; conditions: mean of triplicate
Summary of the method: as §1

E. coli ML-35 cells = test: ONPG hydrolysis assay (inner membrane); assay type: cell-based; conditions: 1.5 mM ONPG, 10 mM sodium phosphate pH 7.4, absorbance 405 nm
Description: The permeability of the inner membrane was determined using E. coli ML-35 cells […]
The intact bacterial inner membrane is non-permeable to o-nitrophenyl-β-D-galactopyranoside (OPNG), a chromogenic substrate of the β-galactosidase.
Following damage to the inner membrane, OPNG enters the cells and is metabolized by β-galactosidase creating a chromogenic […]. E. coli cells were washed in 10 mM sodium phosphate (pH 7.4) containing 100 mM NaCl and resuspended in the same buffer at a final concentration of OD600 = 0.5 containing 1.5 mM ONPG. The hydrolysis of ONPG and generation of o-nitrophenol over time were monitored as absorbance change at 405 nm following the addition of peptoids. […]

[6] = remark linked to increased retention time of N4hb peptoids
human cells and animals = conditions: cited from earlier work
[7] = Table S2, broth dilution, MHB2, 37 °C 24 h, max 25 µM

Row | Compound | H max (100 µM) (rat erythrocytes) | HPLC elution (%ACN) [2] | Hmax (100 µM) (rat erythrocytes) | HC10 (rat erythrocytes; pH 7.4) | HC50 (rat erythrocytes; pH 7.4) | HPLC elution [2] | aqueous solubility [6] | also measured
1 | CC[C@H](C)[C@H](NC(=O)CN)C(=O)NCC(=O)N[C@@H](C)C(=O)N[C@H](C(=O)N[C@@H](CC(C)C)C(=O)N[C@@H](CCCCN)C(=O)N[C@H](C(=O)N[C@@H](CC(C)C)C(=O)N[C@H](C(=O)N[C@H](C(=O)NCC(=O)N[C@@H](CC(C)C)C(=O)N1CCC[C@H]1C(=O)N[C@@H](C)C(=O)N[C@@H](CC(C)C)C(=O)N[C@H](C(=O)N[C@@H](CO)C(=O)N[C@@H](Cc1c[nH]c2ccccc12)C(=O)N[C@H](C(=O)N[C@@H](CCCCN)C(=O)N[C@@H](CCCNC(=N)N)C(=O)N[C@@H](CCCCN)C(=O)N[C@@H](CCCNC(=N)N)C(=O)N[C@@H](CCC(N)=O)C(=O)N[C@@H](CCC(N)=O)C(N)=O)[C@@H](C)CC)[C@@H](C)CC)[C@@H](C)O)[C@@H](C)O)C(C)C)C(C)C [Melittin, reference compound] | 105.7 ± 17.6% | 55.4 %ACN |  |  |  |  |  | Th S fluorescence (intracellular biomass aggregation) (E. coli ATCC 25922 [1]): enhanced Th S fluorescence; change of cell volume (E. coli ATCC 25922 [3]): notable reduction in cell volume; change of mean RI value versus control cells (E. coli ATCC 25922 [3]): significantly increased mean RI values
2 | C[C@@H](c1ccccc1)N(CC(N)=O)C(=O)CN(CCCCN)C(=O)CN(CCCCN)C(=O)CN(C(=O)CN(C(=O)CN(CCCCN)C(=O)CN(C(=O)CN(C(=O)CN(CCCCN)C(=O)CN(CCc1c[nH]c2ccccc12)C(=O)CN(CCc1c[nH]c2ccccc12)C(=O)CNCCCCN)[C@@H](C)c1ccccc1)[C@@H](C)c1ccccc1)[C@@H](C)c1ccccc1)[C@@H](C)c1ccccc1 [peptoid 32] | 15.9 ± 1.5% | 48.4 %ACN | 4.2±1.0% | 77.7 µM | > 100 µM |  |  | MIC E. faecalis KCTC 3511 (E. faecalis KCTC 3511): 6.3 µM (≈ 11.7 µg/mL); MIC S. typhimurium SL 1344 (S. typhimurium SL 1344): 6.3 µM (≈ 11.7 µg/mL); MIC E. coli ATCC25922 (E. coli ATCC 25922 [4]; [7]): 6.3 µM (≈ 11.7 µg/mL); MIC E. coli ATCC25922 (E. coli ATCC 25922 [4]; Table S3, counter-ion exchange series (TFA, HCl, AcOH salts)): 6.3 µM; MIC K. pneumonia ESBL 61962 (K. pneumonia ESBL 61962): 12.5 to 25 µM; HC10 (rat erythrocytes; red cells of rat): > 100 µM; MIC P. aeruginosa MDR-198 (P. aeruginosa MDR-198): 6.3 to 12.5 µM; MIC S. aureus MRSA C623 (S. aureus MRSA C623): 3.1 to 6.3 µM; outer membrane disruption (NPN uptake) (E. coli ATCC 25922 [5]): somewhat lower; MIC E. coli ESBL 63103 (E. coli ESBL 63103): 12.5 to 25 µM; MIC S. aureus ATCC25923 (S. aureus ATCC 25923; [7]): 3.1 µM (≈ 5.78 µg/mL); MIC S. aureus ATCC25923 (S. aureus ATCC 25923; Table S3, counter-ion exchange series): 3.1 µM (≈ 5.78 µg/mL); inner membrane disruption (ONPG hydrolysis) (E. coli ML-35 cells): lower than that seen with more hydrophobic peptoids
3 | C[C@@H](c1ccccc1)N(CC(N)=O)C(=O)CN(CCCCN)C(=O)CN(C(=O)CN(C(=O)CN(CCCCN)C(=O)CN(C(=O)CN(CCCCN)C(=O)CN(CCCCN)C(=O)CN(C(=O)CN(C(=O)CN(CCCCN)C(=O)CN(C(=O)CNCCc1c[nH]c2ccccc12)[C@@H](C)c1ccccc1)[C@@H](C)c1ccccc1)[C@@H](C)c1ccccc1)[C@@H](C)c1ccccc1)[C@@H](C)c1ccccc1)[C@@H](C)c1ccccc1 [peptoid 63] |  |  | 12.7±0.9% | 85.0 µM | > 100 µM | 49.9 % MeCN | poor aqueous | 
4 | C[C@@H](c1ccccc1)N(CC(N)=O)C(=O)CN(CCCCN)C(=O)CN(C(=O)CN(C(=O)CN(CCCCN)C(=O)CN(C(=O)CN(C(=O)CN(CCCCN)C(=O)CN(C(=O)CN(CCCCN)C(=O)CN(CCCCN)C(=O)CN(C(=O)CNCCc1c[nH]c2ccccc12)[C@@H](C)c1ccccc1)[C@@H](C)c1ccccc1)[C@@H](C)c1ccccc1)[C@@H](C)c1ccccc1)[C@@H](C)c1ccccc1)[C@@H](C)c1ccccc1 [peptoid 64] |  |  | 18.9±2.9% | 70.7 µM | > 100 µM | 50.5 % MeCN | poor aqueous | 
5 | KKIRVRLSA [M33-TFA] |  |  |  |  |  |  |  | toxicity of M33-TFA above that of M33-AcOH (human cells and animals): 5-30%
